In one series the test system is HDV. Kind of series: HDV infection of HepaRG cells (HDAg immunofluorescence). The class given is cell-based, hepatitis delta virus. The following applies: HDAg positive cells, day 5; concentration-dependent.
Series [1] can be described thus: WST-1 cytotoxicity, wildtype U2OS cells. The following applies: human; for viability at 2 h, 1 µM / viability at 2 h, 100 µM / viability at 2 h, 10 µM: wildtype U2OS cells.
The next series is described as follows: in vitro. The following applies: human.
For another series, the system named is HBV. The following applies: for HBV infection in HepaRG cells (in words): HBeAg, HBsAg, HBcAg, concentration-dependent; for number of HBcAg positive stained cells: HepaRG cells, day 10 post HBV infection, 50 µM.
Series [2] has as its target T1, human NTCP (Homo sapiens, UniProt Q14973).
T1 sequence (Q14973 1-349): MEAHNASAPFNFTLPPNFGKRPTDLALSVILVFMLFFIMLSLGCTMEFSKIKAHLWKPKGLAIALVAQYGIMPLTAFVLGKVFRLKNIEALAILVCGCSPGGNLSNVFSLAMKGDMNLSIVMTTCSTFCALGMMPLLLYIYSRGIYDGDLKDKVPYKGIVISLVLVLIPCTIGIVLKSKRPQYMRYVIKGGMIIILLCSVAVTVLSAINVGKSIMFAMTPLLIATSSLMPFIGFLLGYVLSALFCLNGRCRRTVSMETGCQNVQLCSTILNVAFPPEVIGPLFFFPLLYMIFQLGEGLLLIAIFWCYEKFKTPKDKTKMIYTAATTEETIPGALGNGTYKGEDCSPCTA
Kind of series: Taurocholate uptake inhibition studies in U2OS-HA-hNTCP cells. The class given is cell-based. Further details: HA; expressed in transfected cells. The following applies: for Taurocholate uptake into U2OS-HA-hNTCP cells (in words): increasing drug concentrations. On the procedure:
(§1) For MDCK or MDCK-hASBT cells 70.000 cells/well were plated in 24-well plates, followed by 24 hours 10 mM sodium butyrate (Sigma-Aldrich) stimulation the next day. Cells were used in the inhibition studies 24 hours (U2OS cell lines) or 48 hours (MDCK cell lines) later. Inhibition studies with mNTCP transiently transfected cells were conducted 48–72 hours after transfection.
(§2) Medium was aspirated from the wells and cells were washed once with 250 µL uptake buffer. Subsequently, cells were pre-incubated with drug in 150 µL uptake buffer for 10 minutes at 37 °C. Taurocholate uptake was initiated by addition of 100 µL uptake buffer containing taurocholate (final concentration 10 µM TC spiked with tritium-labeled TC) and cells were incubated for 2 minutes at 37 °C. Subsequently, cells were washed 4 times with ice-cold PBS and lysed with 0.05% SDS in water. Radioactivity was measured by liquid scintillation counting.

The target in series [3] is T1, human NTCP. Kind of series: Screening taurocholate uptake assay (96-well, [14C]taurocholate, 10 µM drug). The following applies: for Ranking score: ranking over the functional and the binding screening assay; for B-score functional assay: screening taurocholate uptake, 10 µM drug.
The next series deals with T2, mouse NTCP (Mus musculus, UniProt O08705).
T2 construct: expressed in transfected cells; host or cells: U2OS (transient transfection, PEI)
T2 sequence (O08705 1-362): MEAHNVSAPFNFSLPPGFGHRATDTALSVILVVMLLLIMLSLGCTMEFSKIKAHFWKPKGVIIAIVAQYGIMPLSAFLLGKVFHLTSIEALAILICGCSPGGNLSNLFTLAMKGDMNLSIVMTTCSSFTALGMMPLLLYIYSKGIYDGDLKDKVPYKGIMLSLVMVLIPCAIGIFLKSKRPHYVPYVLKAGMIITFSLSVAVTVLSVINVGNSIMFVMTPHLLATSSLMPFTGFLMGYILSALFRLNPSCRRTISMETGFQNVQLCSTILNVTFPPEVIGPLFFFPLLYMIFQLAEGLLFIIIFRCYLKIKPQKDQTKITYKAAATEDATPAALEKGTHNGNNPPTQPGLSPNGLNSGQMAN
Kind of series: Taurocholate uptake in U2OS cells transiently transfected with mouse NTCP. Type of series: cell-based. The following applies: at the calculated IC50 value for hNTCP. On the procedure: (§3) U2OS and MDCK cells were grown in Dulbecco’s modified Eagle’s medium (DMEM, Sigma-Aldrich), supplemented with 10% FCS (Gibco), 1% L-glutamine (Lonza), and 1% penicillin/streptomycin (Lonza). […] Transient transfection of U2OS cells with mouse NTCP (mNTCP) was done with PEI reagent (Brunschwig, Basel, Switzerland). Shortly, U2OS cells were seeded one day prior to transfection in 24-well plates. On the day of transfection, 0.5 µg DNA was mixed with 100 µl unsupplemented DMEM and 3 µg/µl PEI. After 10–15 minute incubation at RT, 20 µl of the transfection mix was added to each 24-well. Transfected cells were used in further experiments 48–72 hours later. Cell lines were passaged twice a week at a confluence of 80%, and incubated in a humidified atmosphere of 37 °C + 5% CO2.
as §1, §2

Series [4] has as its target T1, human NTCP. Kind of series: Myrcludex B-FITC binding by confocal microscopy in U2OS-HA-hNTCP cells. The arrangement: HA; expressed in transfected cells. The following applies: for Myrcludex B-FITC fluorescence / binding to U2OS-HA-hNTCP cells (in words): co-administration with increasing amounts of drug; for ≥50% loss of Myrcludex B binding to hNTCP (concentration): confocal microscopy, 0.2 µM Myrcludex B-FITC, drug 1, 10, 100 µM, concentration at which binding inhibited minimally 50%. The protocol:
After 24 hours, medium was aspirated and cells were washed once with 300 µl Leibovitz’s L-15 Medium (Invitrogen). A 30 minute incubation period followed in which all cells were incubated with 0.2 µM Myrcludex B-FITC with or without drug (1, 10, 100 µM) and Hoechst (1/1000) in 300 µL Leibovitz’s L-15 Medium. Cells were washed twice with Leibovitz’s L-15 Medium and subsequently 400 µL Leibovitz’s L-15 Medium was added. Live cell fluorescent imaging was performed using a Leica SP8X-SMD confocal microscope with fully enclosed incubation at 37 °C. A 63x oil objective was used and images were captured while the cells were consecutively excited at 490 nm (FITC) 350 nm (Hoechst). ImageJ software (National Insititutes of Health, Bethesda, MD) was employed for data analysis.

The target of another series is T3, human ASBT (Homo sapiens, UniProt Q12908).
T3 construct: expressed in transfected cells; gift of Paul Dawson; induced with sodium butyrate
T3 sequence (Q12908 1-348): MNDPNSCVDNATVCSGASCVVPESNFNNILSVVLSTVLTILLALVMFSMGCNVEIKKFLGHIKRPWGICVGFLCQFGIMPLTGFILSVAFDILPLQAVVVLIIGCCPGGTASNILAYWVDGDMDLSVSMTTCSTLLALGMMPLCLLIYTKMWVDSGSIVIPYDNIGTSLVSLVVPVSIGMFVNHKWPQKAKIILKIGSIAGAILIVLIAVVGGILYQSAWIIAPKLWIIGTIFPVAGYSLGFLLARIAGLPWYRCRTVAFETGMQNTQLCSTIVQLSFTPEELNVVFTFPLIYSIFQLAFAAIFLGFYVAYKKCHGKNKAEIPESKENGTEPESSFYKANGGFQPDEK
Description: Taurocholate uptake in MDCK-hASBT cells. The following applies: compared with NTCP. Type of series: cell-based. The protocol:
as §3, §1, §2

Where [5] appears, read: U2OS-HA-hNTCP cells, concentrations 1 nM to 10 mM, read-out: IC50 for hNTCP-mediated TC uptake.
Setting [6] is: HepaRG cells infected with HBV, supernatant day 7 to 10.

“Also recorded” adds a separate entry of the source. Read-outs that look alike come from different tables or passages of the source.

Regarding `O=C(O)Cc1cc(I)c(Oc2ccc(O)c(I)c2)c(I)c1` [TRIAC, 3,3′,5-Triiodothyroacetic acid], the “HDV infection in HepaRG cells (in words)” value in the series with HDV is listed as “reduced HBV/HDV infection; also recorded: reduce”. For the same compound, in [1], the viability at 2 h, 1 µM was 100 ± 7.5% and the viability at 2 h, 100 µM turned out to be 81.6 ± 3.8%. In addition, in “in vitro”, the viability at 2 h, 1 µM was 109 ± 4.1%; the viability at 2 h, 10 µM amounted to 105 ± 2.1%; the viability at 2 h, 100 µM amounted to 86.3 ± 4.9%. In addition, in the series on HBV, the “HBV infection in HepaRG cells (in words)” value was “reduced HBV/HDV infection; also recorded: reduce” and the “number of HBcAg positive stained cells” value is on record as “mild reduction”.
In the case of `Cc1c(Cl)cccc1Nc1ccccc1C(=O)O` [Tolfenamic Acid, Tolfenamic acid], at human NTCP [2] (setting [5]), the IC50 amounted to 12.5 µM. The “Taurocholate uptake into U2OS-HA-hNTCP cells (in words)” value at human NTCP [2] is given as “reduced in a dose-dependent fashion”. Further, at human NTCP [3], the Ranking score is 28.5657 and the B-score functional assay is given as -4.169. The “inhibition of mouse Ntcp-mediated taurocholate uptake compared with human NTCP” value (from here on “inhibition … compared with human NTCP”) on mouse NTCP is on record as “inhibited similarly as human NTCP”. Further, on human NTCP [4], the “Myrcludex B-FITC fluorescence / binding to U2OS-HA-hNTCP cells (in words)” value is “reduced Myrcludex B-FITC fluorescence” and the “≥50% loss of Myrcludex B binding to hNTCP (concentration)” value (“≥50% loss of Myrcludex B binding” below) is reported as not below 100 µM. Further, the “≥50% loss of Myrcludex B binding” value at human NTCP [4] (listed as tolfenamic acid) is given as not above 100 µM. In [1], the viability at 1 µM turned out to be 94.7 ± 6.3%, the viability at 10 µM was determined as 105 ± 11.7% and the viability at 100 µM came to 82.1 ± 4.8%. Also, in “in vitro” (U2OS-HA-hNTCP cells), the viability at 2 h, 1 µM came out at 116 ± 10.3%; the viability at 2 h, 10 µM was determined as 118 ± 13%; the viability at 2 h, 100 µM turned out to be 107 ± 12.4%.
In the case of `CCCCC1=NC2(CCCC2)C(=O)N1Cc1ccc(-c2ccccc2-c2nnn[nH]2)cc1` [irbesartan, reference compound], the “NTCP inhibition in the screen (in words)” value at human NTCP [3] (10 µM, both screening assays) is reported as “confirmed NTCP inhibition”. Also, the “position among the hits of the screen (combined ranking of both screening assays)” value on human NTCP [3] (1280 drugs at 10 µM, TC uptake and Myrcludex B binding screens combined) was not above 150. In addition, at human NTCP [3], the Ranking score was found to be 197.737 and the B-score functional assay is on record as -3.733. Further, in the series on HDV, the “HDV infection in HepaRG cells (in words)” value is given as “reduce”. In addition, the “HBV infection in HepaRG cells (in words)” value in the series on HBV is reported as “reduce”. The “concentration effective in reducing HBeAg and HBsAg production” value in the series with HBV (setting [6]) is listed as 17 µM.
On human NTCP [2], `CN(CCOc1ccc(CC2SC(=O)NC2=O)cc1)c1ccccn1` (centres unmarked) [Rosiglitazone] registered an IC50 of 5.1 µM. In addition, the “inhibition of ASBT-mediated taurocholate uptake” value against human ASBT was “inhibited ASBT less effectively and at higher concentrations than observed for NTCP; also recorded: inhibit ASBT in a concentration-dependent fashion”. The “inhibition … compared with human NTCP” value on mouse NTCP is “more capable of inhibiting mouse Ntcp; also recorded: more potent in inhibiting mouse NTCP”. Besides, in the series on HDV, the “HDV infection in HepaRG cells (in words)” value is given as “reduced HBV/HDV infection; also recorded: reduce”. Also, in series [1], the viability at 2 h, 1 µM was found to be 104 ± 7.2%; the viability at 2 h, 10 µM stood at 107 ± 3.4%; the viability at 2 h, 100 µM turned out to be 104 ± 2.5%. Also, in “in vitro” (U2OS-HA-hNTCP cells), the viability at 2 h, 1 µM was determined as 111 ± 4.4%; the viability at 2 h, 10 µM turned out to be 106 ± 4.5%; the viability at 2 h, 100 µM amounted to 103 ± 6%. Moreover, in the series with HBV, the “HBV infection in HepaRG cells (in words)” value is “reduced HBV/HDV infection; also recorded: reduce” and the “number of HBcAg positive stained cells” value is on record as “severely reduced”. Also, in the series with HBV (setting [6]), the “concentration effective in reducing HBsAg” value is not below 50 µM.
In the case of `O=C(O)c1ccccc1Nc1cccc(C(F)(F)F)c1` [Flufenamic Acid, Flufenamic acid], the IC50 at human NTCP [2] (setting [5]) came out at 10 µM. In addition, on human NTCP [2], the “Taurocholate uptake into U2OS-HA-hNTCP cells (in words)” value is recorded as “reduced in a dose-dependent fashion”. On human NTCP [3], the Ranking score came to 48.7852 and the B-score functional assay is recorded as -5.588. On mouse NTCP, the “inhibition … compared with human NTCP” value was “more capable of inhibiting mouse Ntcp; also recorded: more potent in inhibiting mouse NTCP”. Further, on human NTCP [4], the “Myrcludex B-FITC fluorescence / binding to U2OS-HA-hNTCP cells (in words)” value is on record as “reduced Myrcludex B-FITC fluorescence” and the “≥50% loss of Myrcludex B binding” value is given as not below 100 µM. The “≥50% loss of Myrcludex B binding” value at human NTCP [4] (listed as Flufenamic acid) is recorded as not above 100 µM. In series [1], the viability at 2 h, 1 µM is 109 ± 9.1%; the viability at 2 h, 10 µM was 108 ± 8.5%; the viability at 2 h, 100 µM was determined as 104 ± 3.6%. In addition, in the series “in vitro” (U2OS-HA-hNTCP cells), the viability at 2 h, 1 µM turned out to be 125 ± 15.2%; the viability at 2 h, 10 µM was found to be 118 ± 9.6%; the viability at 2 h, 100 µM was 107 ± 9.6%.
